# Activity calls are given as the source filed them.
# Key:
# Danio rerio = test: In Vivo Angiogenesis Dose-Response Confirmation. [Related pubchem assays: 732 (Assay preceding this confirmatory assay.)]; assay type: functional, organism-based
# Protein RecA = molecular target: T1, Protein RecA (Mycobacterium tuberculosis, UniProt P9WHJ3); test: Fluorescence Cell-Free Homogeneous Dose Retest to Identify Inhibitors of RecA-Intein Splicing Activity. [Related pubchem assays (depositor defined):AID2097, AID2223, AID489010, AID492950]; assay type: functional
# T1 sequence (P9WHJ3 whole entry): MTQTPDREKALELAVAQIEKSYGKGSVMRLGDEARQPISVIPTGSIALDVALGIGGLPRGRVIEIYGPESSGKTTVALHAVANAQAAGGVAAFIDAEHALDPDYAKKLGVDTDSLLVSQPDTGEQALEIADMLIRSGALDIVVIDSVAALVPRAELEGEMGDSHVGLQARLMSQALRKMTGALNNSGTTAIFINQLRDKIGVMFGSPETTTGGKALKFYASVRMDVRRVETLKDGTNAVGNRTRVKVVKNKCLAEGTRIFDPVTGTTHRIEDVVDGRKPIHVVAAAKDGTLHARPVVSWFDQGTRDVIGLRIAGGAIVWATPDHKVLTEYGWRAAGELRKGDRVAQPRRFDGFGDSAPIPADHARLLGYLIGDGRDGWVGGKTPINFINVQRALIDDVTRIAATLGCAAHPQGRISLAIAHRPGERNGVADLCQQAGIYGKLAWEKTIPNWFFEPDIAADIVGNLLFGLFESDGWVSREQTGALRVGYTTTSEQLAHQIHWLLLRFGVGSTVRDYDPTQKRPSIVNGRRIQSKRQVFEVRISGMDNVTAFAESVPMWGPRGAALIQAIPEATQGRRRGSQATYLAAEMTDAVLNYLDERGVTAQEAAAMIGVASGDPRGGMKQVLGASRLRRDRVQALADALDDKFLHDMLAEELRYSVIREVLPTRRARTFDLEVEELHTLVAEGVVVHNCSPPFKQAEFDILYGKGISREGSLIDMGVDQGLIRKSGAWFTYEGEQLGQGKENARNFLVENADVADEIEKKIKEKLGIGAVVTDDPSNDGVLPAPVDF
# SUMO-activating enzyme [1] = molecular target: T2, SUMO-activating enzyme (Homo sapiens, UniProt Q9UBT2); test: blockers of UBC9-mediated SUMO conjugation – biochemical, AlphaScreen, SUMOylation inhibitor project, confirmation (AID 2018); assay type: functional
# Protein Tat = Protein Tat (Human immunodeficiency virus type 1 group M subtype B (isolate HXB2)(HIV-1), UniProt P04608); assay type: functional;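 also: tat binding to TAR RNA read out by fluorescence polarization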
# Large T antigen = Large T antigen (Simian virus 40, UniProt P03070); assay type: functional, Betapolyomavirus macacae;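 also: Confirmatory-stage PubChem screen for compounds that inhibit SV40 T antigen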
# SUMO-activating enzyme [2] = molecular target: T2, SUMO-activating enzyme; test: blockers of SAE1/SAE2–UBC9 SUMO transfer – biochemical, HTRF, uHTS, primary screen (AID 2006); assay type: protein-complex assay
# Estrogen receptor beta [3] = molecular target: T3, Estrogen receptor beta (Homo sapiens, UniProt Q92731);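 also: recombinant ER-beta bound to coactivator SRC1 peptide in presence of estradiol agonist; inhibitors block coactivator peptide binding and lower the FRET signal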
# Estrogen receptor beta [4] = molecular target: T3, Estrogen receptor beta; test: blockers of SRC-3 recruitment to ERβ – biochemical, ELISA, streptavidin-HRP readout, orthogonal assay, confirmation (AID 1060)
# [5] = molecular target: Mitogen-activated protein kinase 10 (Homo sapiens, UniProt P53779); test: Dose response biochemical screening assay for inhibitors of c-Jun N-Terminal Kinase 3 (JNK3). [Related pubchem assays: 746 ]
# Estrogen receptor = molecular target: T4, Estrogen receptor (Homo sapiens, UniProt P03372);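 also: potency for inhibiting coactivator peptide recruitment to the receptor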
# T4 sequence (P03372 whole entry): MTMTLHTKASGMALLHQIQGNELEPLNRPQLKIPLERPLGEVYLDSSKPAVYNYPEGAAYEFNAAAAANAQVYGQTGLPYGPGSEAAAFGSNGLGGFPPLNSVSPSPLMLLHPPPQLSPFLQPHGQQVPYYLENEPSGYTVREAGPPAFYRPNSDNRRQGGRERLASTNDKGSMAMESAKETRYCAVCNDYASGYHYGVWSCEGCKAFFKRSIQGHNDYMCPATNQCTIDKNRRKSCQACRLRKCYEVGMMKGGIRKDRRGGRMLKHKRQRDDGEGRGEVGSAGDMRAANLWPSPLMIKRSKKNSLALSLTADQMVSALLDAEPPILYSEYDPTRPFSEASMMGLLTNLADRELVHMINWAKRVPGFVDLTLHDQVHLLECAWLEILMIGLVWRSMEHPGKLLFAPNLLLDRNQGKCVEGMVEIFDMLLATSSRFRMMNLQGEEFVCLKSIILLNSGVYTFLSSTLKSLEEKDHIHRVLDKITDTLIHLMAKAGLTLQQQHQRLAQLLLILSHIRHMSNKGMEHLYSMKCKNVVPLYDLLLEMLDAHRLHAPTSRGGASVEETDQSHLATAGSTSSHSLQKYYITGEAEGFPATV
# [6] = molecular target: T5, Oxysterols receptor LXR-beta (Homo sapiens, UniProt P55055); test: LXR agonists, Gal4 luciferase reporter, dose response, counter-screen for ssDAF-12 agonist project, cell-based, luminescence, HEK293, S. stercoralis campaign (AID 720737); assay type: functional; settings: read-out: IC50 (the source's name)
# T5 sequence (P55055 whole entry): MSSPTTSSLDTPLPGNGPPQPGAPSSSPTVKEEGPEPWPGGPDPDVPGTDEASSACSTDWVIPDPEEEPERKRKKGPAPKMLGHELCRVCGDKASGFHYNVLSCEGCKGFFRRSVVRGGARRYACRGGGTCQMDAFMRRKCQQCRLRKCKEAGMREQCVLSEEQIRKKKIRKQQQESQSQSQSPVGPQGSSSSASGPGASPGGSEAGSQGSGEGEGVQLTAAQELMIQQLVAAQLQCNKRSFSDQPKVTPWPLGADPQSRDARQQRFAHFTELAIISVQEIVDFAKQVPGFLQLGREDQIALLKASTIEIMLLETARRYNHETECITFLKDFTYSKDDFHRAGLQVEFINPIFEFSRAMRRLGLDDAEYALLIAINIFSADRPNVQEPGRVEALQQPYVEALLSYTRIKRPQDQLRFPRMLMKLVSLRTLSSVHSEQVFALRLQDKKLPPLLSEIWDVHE
# [7] = Luminescence Cell-Based Dose Confirmation HTS to Identify Inhibitors of Platelet Dense Granule Release. [Related pubchem assays: 1663 (Primary HTS), 1678 (Summary of Project)]; assay type: functional
# [8] = molecular target: Luciferin 4-monooxygenase (Photinus pyralis, UniProt P08659); test: inhibition of purified Photinus pyralis luciferase – biochemical, luminescence, dose response (AID 1891)
# [9] = molecular target: T5, Oxysterols receptor LXR-beta; assay type: functional, cell-based
# [10] = Luminescence-based cell-based high throughput dose response assay to identify activators of the DAF-12 from the parasite S. stercoralis (ssDAF-12).; assay type: functional
# cells [11] = test: cells
# BJ [12] = test: BJ-TERT fibroblast viability loss – cell-based, RAS-independent, luminescence, dose response (AID 1933); assay type: functional; settings: Homo sapiens
# BJ [13] = test: cells; assay type: functional, cell-based; settings: Homo sapiens
# [14] = DRD fibroblast viability loss – cell-based, non-viral oncogenic, luminescence, dose response (AID 1934); assay type: functional; settings: Homo sapiens
# [15] = viability loss in Vero cells – cytotoxicity control for Vif-APOBEC3G degradation inhibitor project, dose response (AID 1117358); assay type: functional; settings: Vero
# BJ [16] = test: BJ-TERT-LT-ST fibroblast viability loss – cell-based, RAS-independent, luminescence, dose response (AID 1935); assay type: functional; settings: Homo sapiens;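 also: BJ fibroblasts immortalized with TERT plus LT and ST oncogenes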
# [17] = fluconazole-exposed Candida albicans growth modulators – fluorescence, retest, confirmation (AID 2467); assay type: functional, cell-based
# [18] = Luminescence Cell-Based Dose Confirmation HTS to Identify Activators of 5'UTR Stem-Loop Driven Alpha-Synuclein mRNA Translation in H4 Neuroglioblastoma Cells. [Related pubchem assays: 1829 (Project Summary), 1814 (Primary HTS)]; assay type: functional
# [19] = reduced cellular PGC1a acetyl-lysine signal – cell-based, cherry-picked samples, dose response (AID 720514); assay type: functional;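 also: potency may reflect raised or lowered acetylation signal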
# [20] = NIH-3T3 fibroblast cytotoxicity, dose response, cytotoxicity control, cell-based, fluorescence, Alamar Blue, secondary assay (AID 2327); assay type: functional;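 also: NIH-3T3 mouse fibroblasts cultured with fluconazole at 8 µg/mL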
# H4 = test: Luminescence Cell-Based Dose Response HTS to Identify Activators of 5'UTR Stem-Loop Driven Prion Protein mRNA Translation in H4 Neuroglioblastoma Cells. [Related pubchem assays: 1829 (Project Summary), 1814 (Primary HTS)]; assay type: functional; settings: Homo sapiens
# [21] = Trypanosoma cruzi growth suppression in host cells – NIH3T3 host cells, beta-gal luminescence, confirmation (AID 2044); assay type: functional, cell-based;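 also: intracellular parasites grown in NIH/3T3 mouse fibroblasts as host cells; luminescent beta-galactosidase reporter signal from transgenic T. cruzi replicating inside host cells; inhibitors lower the luminescence signal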
# [22] = Luminescence Cell-Based Dose Response HTS to Identify Activators of Luciferase Translation or Activity in H4 […] Cells. [Related pubchem assays: 1829 (Project Summary), 1814 (Primary HTS)]; assay type: functional
# [23] = NIH3T3 cell viability loss – ATP luminescence, mouse fibroblasts, counter-screen, dose response (AID 2010); assay type: functional, cell-based;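 also: cells exposed to compound for about 90 hours before reading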
# [24] = molecular target: T6, Replicative DNA helicase DnaB (Mycobacterium tuberculosis, UniProt P9WMR3); test: DnaB intein splicing inhibitors, dose response, biochemical, cell-free fluorescence (AID 449749); assay type: functional
# T6 sequence (P9WMR3 whole entry): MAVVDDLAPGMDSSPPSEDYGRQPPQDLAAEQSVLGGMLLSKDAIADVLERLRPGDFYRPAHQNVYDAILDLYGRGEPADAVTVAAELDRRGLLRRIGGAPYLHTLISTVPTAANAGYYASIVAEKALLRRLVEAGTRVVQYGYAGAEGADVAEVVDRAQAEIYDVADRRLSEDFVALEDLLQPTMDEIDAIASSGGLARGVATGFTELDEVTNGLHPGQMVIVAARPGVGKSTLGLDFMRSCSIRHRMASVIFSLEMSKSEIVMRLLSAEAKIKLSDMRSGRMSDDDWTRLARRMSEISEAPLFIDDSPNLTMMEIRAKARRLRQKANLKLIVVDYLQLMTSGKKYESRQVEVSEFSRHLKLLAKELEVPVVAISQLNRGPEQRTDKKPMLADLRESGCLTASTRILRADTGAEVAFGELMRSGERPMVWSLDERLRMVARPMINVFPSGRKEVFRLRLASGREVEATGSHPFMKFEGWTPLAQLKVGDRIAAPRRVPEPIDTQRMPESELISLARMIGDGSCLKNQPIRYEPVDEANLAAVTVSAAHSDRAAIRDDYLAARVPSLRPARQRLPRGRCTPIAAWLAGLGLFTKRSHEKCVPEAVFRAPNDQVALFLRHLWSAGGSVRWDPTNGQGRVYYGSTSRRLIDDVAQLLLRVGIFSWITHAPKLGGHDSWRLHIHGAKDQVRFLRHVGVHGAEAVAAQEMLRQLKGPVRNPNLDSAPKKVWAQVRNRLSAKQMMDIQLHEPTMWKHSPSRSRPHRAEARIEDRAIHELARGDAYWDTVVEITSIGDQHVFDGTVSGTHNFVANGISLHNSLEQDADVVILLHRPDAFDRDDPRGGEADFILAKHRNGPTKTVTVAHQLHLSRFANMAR
# cells [25] = test: cells; remark: listed apart in the source
# Genome polyprotein = Genome polyprotein (Hepatitis C virus, UniProt Q2Q167); test: disruption of hepatitis C core self-association – biochemical, TR-FRET, dose response (AID 2159); set-up: species or system Hepacivirus hominis;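 also: blocks dimerization of HCV core protein measured by TR-FRET between tagged core106 pairs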
# Major prion protein = Major prion protein (Homo sapiens, UniProt P04156); assay type: functional, cell-based
# T3 sequence (Q92731 whole entry): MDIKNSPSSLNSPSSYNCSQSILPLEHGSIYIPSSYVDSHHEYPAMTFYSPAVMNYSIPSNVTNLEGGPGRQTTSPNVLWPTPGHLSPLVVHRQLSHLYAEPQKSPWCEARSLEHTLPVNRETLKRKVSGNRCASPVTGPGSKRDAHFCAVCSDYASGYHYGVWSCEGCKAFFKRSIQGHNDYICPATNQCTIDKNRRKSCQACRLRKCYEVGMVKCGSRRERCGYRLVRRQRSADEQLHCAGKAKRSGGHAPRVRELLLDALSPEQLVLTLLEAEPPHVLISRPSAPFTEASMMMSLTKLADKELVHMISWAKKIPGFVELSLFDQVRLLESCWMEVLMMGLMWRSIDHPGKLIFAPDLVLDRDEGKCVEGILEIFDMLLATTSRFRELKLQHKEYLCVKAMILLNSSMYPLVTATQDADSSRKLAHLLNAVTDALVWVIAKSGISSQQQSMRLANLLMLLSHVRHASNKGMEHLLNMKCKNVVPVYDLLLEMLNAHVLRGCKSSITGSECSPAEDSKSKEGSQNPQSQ
# Sequence of Protein Tat (P04608 whole entry): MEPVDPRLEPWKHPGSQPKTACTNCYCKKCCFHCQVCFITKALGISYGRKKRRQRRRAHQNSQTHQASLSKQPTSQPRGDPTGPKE
# Sequence of Mitogen-activated protein kinase 10 (P53779 whole entry): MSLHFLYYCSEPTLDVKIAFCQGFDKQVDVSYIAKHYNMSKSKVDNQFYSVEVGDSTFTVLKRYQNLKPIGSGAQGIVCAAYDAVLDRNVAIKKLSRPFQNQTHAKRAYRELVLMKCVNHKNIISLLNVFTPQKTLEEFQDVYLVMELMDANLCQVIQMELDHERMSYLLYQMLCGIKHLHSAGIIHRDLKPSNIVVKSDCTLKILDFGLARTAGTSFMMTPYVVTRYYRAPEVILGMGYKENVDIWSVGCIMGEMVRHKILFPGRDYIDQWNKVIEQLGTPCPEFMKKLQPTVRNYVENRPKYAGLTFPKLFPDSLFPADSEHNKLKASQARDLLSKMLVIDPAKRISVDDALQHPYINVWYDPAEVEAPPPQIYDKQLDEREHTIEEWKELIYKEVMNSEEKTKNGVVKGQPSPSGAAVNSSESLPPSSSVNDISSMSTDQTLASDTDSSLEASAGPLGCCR
# T2 sequence (Q9UBE0 whole entry): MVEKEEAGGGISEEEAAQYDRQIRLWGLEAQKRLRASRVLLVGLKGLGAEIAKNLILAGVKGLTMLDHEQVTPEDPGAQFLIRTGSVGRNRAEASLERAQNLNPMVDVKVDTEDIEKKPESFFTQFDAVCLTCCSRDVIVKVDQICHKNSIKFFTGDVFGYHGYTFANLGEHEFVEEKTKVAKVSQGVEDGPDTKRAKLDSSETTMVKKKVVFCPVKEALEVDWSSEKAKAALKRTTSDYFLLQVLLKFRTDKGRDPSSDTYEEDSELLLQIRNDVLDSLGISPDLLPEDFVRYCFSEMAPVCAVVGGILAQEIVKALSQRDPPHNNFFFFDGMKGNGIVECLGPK
# T2 sequence (Q9UBT2 whole entry): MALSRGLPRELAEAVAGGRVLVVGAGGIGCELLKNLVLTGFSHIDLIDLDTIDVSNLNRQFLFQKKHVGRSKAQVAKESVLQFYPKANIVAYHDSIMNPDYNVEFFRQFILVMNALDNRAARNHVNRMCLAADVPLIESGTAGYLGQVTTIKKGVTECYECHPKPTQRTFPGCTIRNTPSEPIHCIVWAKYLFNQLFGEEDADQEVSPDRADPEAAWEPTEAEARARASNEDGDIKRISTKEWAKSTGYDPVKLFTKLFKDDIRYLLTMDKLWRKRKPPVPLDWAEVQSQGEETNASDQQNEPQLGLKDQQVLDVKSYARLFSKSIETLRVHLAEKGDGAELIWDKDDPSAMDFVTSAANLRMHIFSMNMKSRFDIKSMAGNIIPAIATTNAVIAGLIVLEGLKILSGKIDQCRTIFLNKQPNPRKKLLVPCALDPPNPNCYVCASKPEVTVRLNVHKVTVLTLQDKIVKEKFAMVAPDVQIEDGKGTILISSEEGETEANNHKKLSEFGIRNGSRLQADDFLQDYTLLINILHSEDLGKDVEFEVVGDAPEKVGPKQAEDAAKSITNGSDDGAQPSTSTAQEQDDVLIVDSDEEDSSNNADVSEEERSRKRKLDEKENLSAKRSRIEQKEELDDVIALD
# Sequence of Large T antigen (P03070 whole entry): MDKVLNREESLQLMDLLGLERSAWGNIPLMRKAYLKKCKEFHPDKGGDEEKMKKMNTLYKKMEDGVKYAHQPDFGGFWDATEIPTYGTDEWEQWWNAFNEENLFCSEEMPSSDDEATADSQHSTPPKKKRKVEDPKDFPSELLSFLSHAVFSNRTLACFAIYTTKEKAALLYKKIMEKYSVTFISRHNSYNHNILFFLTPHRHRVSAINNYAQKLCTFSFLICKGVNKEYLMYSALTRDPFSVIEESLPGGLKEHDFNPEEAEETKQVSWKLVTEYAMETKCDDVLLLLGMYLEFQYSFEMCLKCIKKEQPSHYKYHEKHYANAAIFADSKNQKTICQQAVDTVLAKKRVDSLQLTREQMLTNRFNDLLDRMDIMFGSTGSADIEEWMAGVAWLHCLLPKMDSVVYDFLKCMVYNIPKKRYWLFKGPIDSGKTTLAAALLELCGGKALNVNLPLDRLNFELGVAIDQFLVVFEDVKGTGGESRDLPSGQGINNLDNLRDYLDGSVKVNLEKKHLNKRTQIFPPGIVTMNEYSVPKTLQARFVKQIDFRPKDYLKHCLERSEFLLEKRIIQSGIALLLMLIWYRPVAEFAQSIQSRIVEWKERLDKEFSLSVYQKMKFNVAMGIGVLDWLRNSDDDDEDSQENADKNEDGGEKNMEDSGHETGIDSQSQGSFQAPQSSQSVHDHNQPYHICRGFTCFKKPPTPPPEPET
# Sequence of Luciferin 4-monooxygenase (P08659 whole entry): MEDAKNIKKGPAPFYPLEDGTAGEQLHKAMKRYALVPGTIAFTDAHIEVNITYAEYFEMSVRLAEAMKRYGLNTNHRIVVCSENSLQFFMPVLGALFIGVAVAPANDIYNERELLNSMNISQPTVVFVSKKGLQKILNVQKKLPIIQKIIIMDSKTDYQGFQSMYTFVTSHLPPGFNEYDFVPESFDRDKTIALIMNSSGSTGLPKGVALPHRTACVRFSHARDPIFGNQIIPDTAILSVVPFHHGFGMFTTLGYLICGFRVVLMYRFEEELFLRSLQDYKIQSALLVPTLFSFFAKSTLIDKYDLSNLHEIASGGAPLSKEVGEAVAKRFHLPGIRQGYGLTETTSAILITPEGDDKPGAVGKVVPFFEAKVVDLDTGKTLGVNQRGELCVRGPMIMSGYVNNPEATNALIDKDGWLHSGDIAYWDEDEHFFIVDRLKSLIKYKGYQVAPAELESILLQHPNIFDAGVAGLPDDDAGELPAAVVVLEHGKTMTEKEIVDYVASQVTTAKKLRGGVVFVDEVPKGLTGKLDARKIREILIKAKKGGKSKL
# Sequence of Genome polyprotein (Q2Q167 whole entry): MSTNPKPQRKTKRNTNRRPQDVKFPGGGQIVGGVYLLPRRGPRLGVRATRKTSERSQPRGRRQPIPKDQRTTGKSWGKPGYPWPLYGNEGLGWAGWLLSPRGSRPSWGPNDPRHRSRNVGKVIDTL
structure (smiles),measurement,setting,value
O=C1Nc2ccccc2/C1=C1/Nc2ccc(Br)cc2/C1=N\OCCN1CCNCC1,IC50,Danio rerio,> 30 µM (not active)
Cc1ccsc1/C=N/c1ccc(O)cc1,EC50,Protein RecA,> 380 µM (inconclusive)
same,IC50,SUMO-activating enzyme [1],2.36 µM (active)
same,IC50,Protein Tat,30.5 µM (inconclusive)
same,IC50,Large T antigen,31.2 µM (active)
same,IC50,SUMO-activating enzyme [2],9.41 µM (active)
c1ccc(Cc2nnc3sc(-c4ccco4)nn23)cc1,IC50,Estrogen receptor beta [3],11.4 µM (active)
same,IC50,Estrogen receptor beta [4],15.2 µM (not active)
Oc1c2nc3cccc(Cl)c3c-2ncn1Cc1ccncc1,IC50,[5],> 93.1 µM (not active)
O=C(CSc1nc2scc(-c3ccco3)c2c(=O)n1-c1ccccc1)NCC1CCCO1 (centres undefined),IC50,Estrogen receptor,30.1 µM (not active)
same,IC50,Estrogen receptor beta [3],22.1 µM (active)
same,IC50,Estrogen receptor beta [4],102 µM (not active)
Oc1c(N=Nc2ccccc2)sc2ccccc12,EC50,[6],> 67.5 µM (inactive)
same,EC50,[7],15 µM (active)
same,EC50,[8],1.26 µM (active)
same,EC50,[9],> 67.5 µM (inactive)
same,IC50,[10],> 67.5 µM (inactive)
same,EC50,cells [11],> 67.5 µM (inactive)
ONC1c2cc(Cl)ccc2-c2c(Cl)cc(Cl)cc21 (centres undefined),IC50,Danio rerio,< 0.3 µM (not active)
CCCOc1ccccc1C1CC(=O)NC2=C1C(=O)CCC2 (centres undefined),EC50,BJ [12],16 µM (active)
same,EC50,BJ [13],44.4 µM (active)
same,EC50,[14],32.7 µM (active)
same,CC50,[15],> 40 µM (active)
same,EC50,BJ [16],17.2 µM (active)
c1ccc(-c2onc3cc4c(cc23)OCCO4)cc1,IC50,[5],50.1 µM (not active)
O=C(OCn1ncc(Cl)c(Cl)c1=O)c1ccc(C(F)(F)F)cc1,EC50,Protein RecA,0.308 µM (active)
same,EC50,[17],> 38 µM (not active)
same,EC50,[18],> 120 µM (not active)
same,AC50,[19],20.6 µM (active)
same,EC50,[20],4.13 µM (inconclusive)
same,EC50,H4,> 120 µM (not active)
same,EC50,[21],1.92 µM (active)
same,EC50,[22],> 120 µM (not active)
same,EC50,[23],1.89 µM (active)
same,AC50,[24],1.23 µM (active)
CCOC(=O)c1sc(NC(=S)NC(=O)C2CCCC2)cc1C,IC50,cells [25],> 138 µM (inactive)
same,IC50,Genome polyprotein,> 49.8 µM (not active)
same,IC50,Major prion protein,5.29 µM (active)
Nc1ccccc1NC1=CC(=O)CC(c2ccco2)C1 (centres undefined),IC50,Protein Tat,31.6 µM (inconclusive)

# Reference: ChEMBL document CHEMBL1201862, “PubChem BioAssay data set” (2004)
